According to PMC13220710 (Bioorganic & medicinal chemistry letters, 2025):
Read-outs that look alike come from different tables or passages of the source.

What was measured:
PC3 cells = details: cited from earlier work
[1] = tested on: PC3 prostate cancer cell line; test: Anti-proliferative activity versus PC3 cells in MTS assay; type: cell-based

Compound	effect on PC3 cells (PC3 cells)	IC50 ([1]; read-out: IC50, viability in prostate cancer cell line PC3, MTS assay, triplicate) [µM]	IC50 ([1]; Homo sapiens, PC-3, read-out: IC50, viability in prostate cancer cell line PC3) [µM]
CC1CCN(CC[C@H]2CCCN2S(=O)(=O)c2cccc(O)c2)CC1 [SB-269970]	inhibited proliferation and induced apoptosis in PC3 cells	52.1 ± 6.5	–
COc1cccc2c1C(=O)c1c(O)c3c(c(O)c1C2=O)C[C@@](O)(C(=O)CO)C[C@@H]3O[C@H]1C[C@H](N)[C@H](O)[C@H](C)O1 [Doxorubicin]	–	–	2.8 ± 0.8
